# Results published in PMC10711620 (Frontiers in Pharmacology, 2023).
# Where two headings read alike, the source gives them in different places.
# Columns and labels:
# blood platelets [1] = test: ADP-induced blood platelet aggregation in platelet-rich plasma; type: cell-based; conditions: Homo sapiens; for inhibition at 50 µg/mL: 50 μg/mL, ADP as agonist
# Description: (§1) The blood samples under examination contained a normal range of blood platelets, ranging from 2.15 × 10^5 to 3.41 × 10^5 cells/μl. Platelet-rich plasma (PRP) was prepared by differentially centrifuging whole blood according to the method described earlier ([Kolodziejczyk-Czepas et al., 2021]). Subsequently, freshly obtained PRP samples (495 μL) were pre-incubated for 15 min at 37°C with the tested analytes (5 μL). These mixtures were then transferred into Chrono-Log 490 aggregometer cuvettes (Havertown, United States). Platelet aggregation measurements were conducted after stimulating the samples with either ADP (a final concentration of 10 μM) or collagen (a final concentration of 2 μg/mL), following the manufacturer’s instructions.
# human plasma [2] = test: Prothrombin time (PT) in blood plasma; type: biochemical; conditions: mean ± SE, n = 12
# Description: When determining the hemostatic parameters, stock solutions of the P. spinosa flower extracts (10 mg/mL) were prepared in 30% DMSO. […] The studies mixed 5 µL of the extracts with 495 µL of blood plasma or thrombin solution. Control samples were untreated with the extracts; however, they contained a vehicle for the plant preparations, i.e., DMSO.
# (Budapest, Hungary), according to the laboratory protocols delivered by the manufacturer. […] Control samples were prepared using blood plasma untreated with the extracts.
# human plasma [3] = test: Activated partial thromboplastin time (APTT) in blood plasma; type: biochemical; conditions: mean ± SE, n = 12
# Description: (§2) When determining the hemostatic parameters, stock solutions of the P. spinosa flower extracts (10 mg/mL) were prepared in 30% DMSO. DMSO concentrations in working solutions of the tested extracts (0.1, 0.5 and 5 mg/mL) were 15%. The studies mixed 5 µL of the extracts with 495 µL of blood plasma or thrombin solution. Control samples were untreated with the extracts; however, they contained a vehicle for the plant preparations, i.e., DMSO. The effect of DMSO on the investigated parameters was excluded in preliminary tests. All experiments used argatroban, a reference anticoagulant drug, as a positive control.
# Thrombin (TT), prothrombin (PT) and the activated partial thromboplastin time (APTT) were measured in blood plasma using a Kselmed K-3002 Optic coagulometer (Kselmed, Grudziadz, Poland) and reagents purchased from Diagon Kft. (Budapest, Hungary), according to the laboratory protocols delivered by the manufacturer. […] Control samples were prepared using blood plasma untreated with the extracts.
# human plasma [4] = test: Thrombin time (TT) in blood plasma; type: biochemical; conditions: mean ± SE, n = 12
# Description: as §2
# Thrombin (TT), prothrombin (PT) and the activated partial thromboplastin time (APTT) were measured in blood plasma using a Kselmed K-3002 Optic coagulometer (Kselmed, Grudziadz, Poland) and reagents purchased from Diagon Kft. (Budapest, Hungary), according to the laboratory protocols delivered by the manufacturer. Before the assays, the blood plasma samples were pre-incubated with the examined extracts at the final 1–50 μg/mL concentration for 15 min at 37°C. Control samples were prepared using blood plasma untreated with the extracts.
# thrombin [5] = molecular target: T1, thrombin (Bos taurus, UniProt P00735); design: method as in Liu et al. (2010); conditions: ref Liu et al. (2010); read-out: IC50, thrombin inhibition in optimized TT assay; cited from earlier work
# T1 construct: comprises two polypeptide chains: the light chain, formed by 36 amino acids, and the heavy chain, which has 259 amino acids; purchased Biomed (Lublin, Poland)
# thrombin [6] = test system: thrombin; design: method as in Wei et al. (2019); conditions: ref Wei et al. (2019); read-out: IC50, inhibition of proteolytic activity of thrombin; cited from earlier work
# blood platelets [7] = test: Collagen-induced blood platelet aggregation in platelet-rich plasma; type: cell-based; conditions: Homo sapiens, 5 μg/mL
# Description: as §1
# thrombin [8] = molecular target: T1, thrombin; test: Amidolytic activity of thrombin, chromogenic substrate S-2238; type: biochemical; conditions: read-out: IC50, thrombin-inhibitory efficiency in the amidolytic tests (converted)
# Description: When determining the hemostatic parameters, stock solutions of the P. spinosa flower extracts (10 mg/mL) were prepared in 30% DMSO. DMSO concentrations in working solutions of the tested extracts (0.1, 0.5 and 5 mg/mL) were 15%. The studies mixed 5 µL of the extracts with 495 µL of blood plasma or thrombin solution. Control samples were untreated with the extracts; however, they contained a vehicle for the plant preparations, i.e., DMSO.
# The thrombin enzyme, purchased from Biomed (Lublin, Poland), was diluted with 0.05 M Tris-buffered saline (TBS), pH 7.4, to the concentration of 0.75 U/mL, and pre-incubated with the examined extracts at the final concentration of 1–50 μg/mL for 10 min, at 37°C. In control samples, 20% DMSO instead of the extracts was used. The measurements were conducted using a kinetic protocol, with absorbance recorded at 415 nm, every 10 s, for 15 min. The reaction mixture comprised 280 µL of thrombin (pre-incubated with the extracts or control/untreated enzyme) and 40 µL of 3 mM chromogenic substrate Chromogenix S-2238 purchased from Instrumentation Laboratory (Bedford, MA, United States of America). Thrombin amidolytic activity was estimated using the BMG Labtech software based on the maximal velocity of the reaction (Vmax). The assays were performed using 96-well microplates and the BMG Labtech SpectroStar Nano spectrophotometer (BMG LABTECH, Offenburg, Germany).
# human thrombin = molecular target: T2, human thrombin (Homo sapiens, UniProt P00734); test: Circular dichroism spectra of thrombin; conditions: thrombin 15 μg/mL, compounds from 1 μg/mL, 37°C
# T2 construct: comprises two polypeptide chains: the light chain, formed by 36 amino acids, and the heavy chain, which has 259 amino acids; purchased Sigma-Aldrich (St. Louis, MO, United States)
# Description: Each spectrum was the average of three repetitions. Human thrombin was used at a 15 μg/mL concentration in 10 mM phosphate buffer (pH = 7.4). In determining circular dichroism spectra, stock solutions of P. spinosa flower components (10 mg/mL) in 10% tetrahydrofuran were initially prepared. The final concentration of tetrahydrofuran in the sample was less than 0.05%. The selected extract components in phosphate buffer without thrombin at the concentrations used in the experiments were used as a baseline for thrombin/extract complexes spectra.
compound,measurement,setting,value
"O=c1c(O[C@@H]2O[C@@H](CO)[C@H](O)[C@H]2O)c(-c2ccc(O)c(O)c2)oc2cc(O)cc(O)c12 [AV, Quercetin 3-O-α-L-arabinofuranoside]",inhibition at 50 µg/mL,blood platelets [1],≤ 15%
CC1CNc2c(cccc2S(=O)(=O)N[C@@H](CCCNC(=N)N)C(=O)N2CC[C@@H](C)C[C@@H]2C(=O)O)C1 (stereo partly shown) [Argatroban],Clothing times PT,human plasma [2]; 0.5 µg/mL,134.01 ± 1.50 % of the control/untreated human plasma
same,Clothing times PT,human plasma [2]; 5 µg/mL,562.65 ± 12.69 % of the control/untreated human plasma
same,Clothing times PT,human plasma [2]; 10 µg/mL,821.54 ± 46.95 % of the control/untreated human plasma
same,Clothing times APTT,human plasma [3]; 0.5 µg/mL,202.58 ± 2.32 % of the control/untreated human plasma
same,Clothing times APTT,human plasma [3]; 5 µg/mL,423.72 ± 7.83 % of the control/untreated human plasma
same,Clothing times APTT,human plasma [3]; 10 µg/mL,No clot
same,Clothing times TT,human plasma [4]; 0.5 µg/mL,974.60 ± 27.50 % of the control/untreated human plasma
same,Clothing times TT,human plasma [4]; 5 µg/mL,No clot
same,Clothing times TT,human plasma [4]; 10 µg/mL,No clot
"O=c1c(O[C@@H]2O[C@H](CO)[C@H](O)[C@H](O)[C@H]2O)c(-c2ccc(O)c(O)c2)oc2cc(O)cc(O)c12 [HY, Quercetin 3-O-β-D-galactopyranoside]",IC50,thrombin [5],> 1000 µM
"O=c1c(O[C@@H]2O[C@H](CO)[C@@H](O)[C@H](O)[C@H]2O)c(-c2ccc(O)c(O)c2)oc2cc(O)cc(O)c12 [IQ, Quercetin 3-O-β-D-glucopyranoside]",IC50,thrombin [6],28.8 µM
COc1ccc2c(c1)c(CC(=O)O)c(C)n2C(=O)c1ccc(Cl)cc1 [Indomethacin],inhibition at 5 µg/mL,"blood platelets [1]; 5 μg/mL, ADP",~23%
same,inhibition at 5 µg/mL,blood platelets [7],~86%
"O=c1c(O[C@@H]2O[C@@H](CO)[C@H](O)[C@H]2O)c(-c2ccc(O)cc2)oc2cc(O)cc(O)c12 [JU, Kaempferol 3-O-α-L-arabinofuranoside]",inhibition at 50 µg/mL,blood platelets [1],≤ 15%
"O=c1c(O)c(-c2ccc(O)cc2)oc2cc(O)cc(O)c12 [KA, Kaempferol]",IC50,thrombin [8],283 µM
same,IC50,thrombin [5],109 µM
"Oc1cc(O)c2c(c1)O[C@@]1(c3ccc(O)c(O)c3)Oc3cc(O)c4c(c3[C@@H]2[C@H]1O)O[C@H](c1ccc(O)c(O)c1)[C@H](O)C4 [PA2, proanthocyanidin A2]",IC50,thrombin [8],90.8 µM
same,Change of thrombin CD spectrum / secondary structure,human thrombin,most apparent modification of the thrombin α-helix structure
"C[C@@H]1O[C@@H](OC[C@H]2O[C@@H](Oc3c(-c4ccc(O)c(O)c4)oc4cc(O)cc(O)c4c3=O)[C@H](O)[C@@H](O)[C@@H]2O)[C@H](O)[C@H](O)[C@H]1O [RT, Quercetin 3-O-(6″-O-α-L-rhamnopyranosyl)-β-D-glucopyranoside]",IC50,thrombin [6],34.1 µM
same,IC50,thrombin [5],> 1000 µM
"C[C@@H]1O[C@@H](Oc2c(-c3ccc(O)cc3)oc3cc(O)cc(O)c3c2=O)[C@H](OC(=O)/C=C/c2ccc(O)cc2)[C@H](O)[C@H]1OC(=O)/C=C/c1ccc(O)cc1 [kaempferol-3-O-(2″,4″-di-E-p-coumaroyl)-rhamnoside]",IC50,thrombin [5],52 µM
O=c1c(O[C@@H]2O[C@H](CO)[C@@H](O)[C@H](O)[C@H]2O)c(-c2ccc(O)cc2)oc2cc(O)cc(O)c12 [kaempferol-3-O-glucoside],IC50,thrombin [5],> 1000 µM
"O=C(/C=C/c1ccc(O)cc1)O[C@H]1[C@H](Oc2c(-c3ccc(O)cc3)oc3cc(O)cc(O)c3c2=O)O[C@@H](CO)[C@@H]1O [p-cJU, Kaempferol 3-O-(2″-O-E-p-coumaroyl)-α-L-arabinofuranoside]",IC50,thrombin [8],67.8 µM
kaempferol-3-O-(2″-di-E-p-coumaroyl)-rhamnoside,IC50,thrombin [5],83 µM
